These are literature values, as cited in US20120059013A1, “METHOD OF TREATING EARLY MORNING AKINESIA IN SUBJECTS HAVING PARKINSON'S DISEASE” (priority 2010, published 2012).

SMILES strings stand for the structures.

Data set [1] has as its system hepatic cytochrome P450 enzymes. The settings on record: humans.
The conditions of data set [2]: humans.

Turning to `CCCN[C@H]1CCc2nc(N)sc2C1` [Pramipexole, (S)-2-amino-4,5,6,7,-tetrahydro-6-(propylamino)benzothiazole], the “Interaction with hepatic cytochrome P450 enzymes” value in data set [1] is “no significant interaction with hepatic cytochrome P450 enzymes”. In addition, in data set [2], the Half-life entry is listed as “long half-life” and the Oral bioavailability result is recorded as “high oral bioavailablity”.
